The target of one assay is ATM (Homo sapiens (Human), UniProt Q13315). Briefly: ATM in Cell Western Assay (pKAP1 in etoposide-treated MCF-7 cells). The assay is classed as cell-based. An outline of the steps:
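After paraformaldehyde fixation and Triton X-100 permeabilization, immunostained plates were read by infrared scanning (ODYSSEY CLx). Compound was given as 10 doses, 3-fold dilutions from a 1 μM final top concentration.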

For a further assay, the target named is DNA-PK (Homo sapiens (Human), UniProt P78527). Briefly: DNA-PK Enzyme-Linked Immunosorbent Assay (phosphorylation of GST-p53 (1-101) peptide). It counts as biochemical. The conditions noted are these: ELISA. How it is done:
Assay of Compounds ATM and DNA-PK Inhibition
remove wash solution, turn plate upside down onto a thin paper towel and centrifuge at 1000 rpm for 1 min to absorb all wash buffer. Clean the bottom of plate with moist lint free paper. Scan plate immediately using ODYSSEY CLx (LI-COR) for the best results. DNA-PK Enzyme-Linked Immunosorbent Assay:
On day one, coat 96-well plate (ThermoFisher. Cat #: 442404) with GST-p53 (1-101) peptide (purified by Pharmaron, BCS department) by diluting 3 μg of GST-p53 each well with 0.1 M Na2CO3/NaHCO3, pH 9.6. Incubate the plate overnight at 4° C. The second day, remove coating buffer, wash 2× with PBST (1×PBS containing 0.1% Tween-20). Then add DNA-PK enzyme solution (Invitrogen, #PR9107A; the final DNA-PK concentration is 0.1 μg/mL), series dilution compounds (the final top concentration is 100 nM, 3 fold series dilution, with total 10 doses) and ATP solution (the final ATP concentration is 20 μM) to the 96-well plate. Incubate the plate at 25° C. for 1 hour. Then wash 3× with PBST (1×PBS containing 0.1% Tween-20). Block the plate with PBST+ 1% BSA at 4° C. overnight. The third day, wash 4× with PBST (1×PBS containing 0.1% Tween-20). Then add Phospho-p53 primary antibody (cell signaling Technology, #9286, Phospho-p53 (Ser15) (16G8) Mouse mAb) (1/1000) to each well. Seal with plate and incubate the plate for 1 h at 37° C. Wash 4× with PBST (1×PBS containing 0.1% Tween-20), add 100 μL of HRP-linked secondary antibody (Cell signaling Technology, #7076, Anti-mouse IgG, HRP-linked Antibody) (1/1000) to each well. Seal with tape and incubate the plate for 30 min at 37° C. Wash 4× with PBST (1×PBS containing 0.1% Tween-20), add 100 μL of TMB (Cell signaling Technology, #7004) substrate to each well. Seal with tape and incubate the plate for 10 min at 37° C. Then add 100 μL of Stop solution (Cell signaling Technology, #7002) to each well. Read the plate at 450 nm to detect absorption.
On the technique in general: In an ELISA, binding on a coated surface is turned into a signal by an enzyme label.

[1] abbreviates: pKAP1 in etoposide-treated MCF-7 cells.
Where [2] appears, read: MCF-7 cells, etoposide 100 μM, 1 hr, pKAP1 readout.

Where a name gives a salt, the structure may show the parent alone. Some results are limits rather than exact numbers.

ATM, sequence (Q13315 whole entry): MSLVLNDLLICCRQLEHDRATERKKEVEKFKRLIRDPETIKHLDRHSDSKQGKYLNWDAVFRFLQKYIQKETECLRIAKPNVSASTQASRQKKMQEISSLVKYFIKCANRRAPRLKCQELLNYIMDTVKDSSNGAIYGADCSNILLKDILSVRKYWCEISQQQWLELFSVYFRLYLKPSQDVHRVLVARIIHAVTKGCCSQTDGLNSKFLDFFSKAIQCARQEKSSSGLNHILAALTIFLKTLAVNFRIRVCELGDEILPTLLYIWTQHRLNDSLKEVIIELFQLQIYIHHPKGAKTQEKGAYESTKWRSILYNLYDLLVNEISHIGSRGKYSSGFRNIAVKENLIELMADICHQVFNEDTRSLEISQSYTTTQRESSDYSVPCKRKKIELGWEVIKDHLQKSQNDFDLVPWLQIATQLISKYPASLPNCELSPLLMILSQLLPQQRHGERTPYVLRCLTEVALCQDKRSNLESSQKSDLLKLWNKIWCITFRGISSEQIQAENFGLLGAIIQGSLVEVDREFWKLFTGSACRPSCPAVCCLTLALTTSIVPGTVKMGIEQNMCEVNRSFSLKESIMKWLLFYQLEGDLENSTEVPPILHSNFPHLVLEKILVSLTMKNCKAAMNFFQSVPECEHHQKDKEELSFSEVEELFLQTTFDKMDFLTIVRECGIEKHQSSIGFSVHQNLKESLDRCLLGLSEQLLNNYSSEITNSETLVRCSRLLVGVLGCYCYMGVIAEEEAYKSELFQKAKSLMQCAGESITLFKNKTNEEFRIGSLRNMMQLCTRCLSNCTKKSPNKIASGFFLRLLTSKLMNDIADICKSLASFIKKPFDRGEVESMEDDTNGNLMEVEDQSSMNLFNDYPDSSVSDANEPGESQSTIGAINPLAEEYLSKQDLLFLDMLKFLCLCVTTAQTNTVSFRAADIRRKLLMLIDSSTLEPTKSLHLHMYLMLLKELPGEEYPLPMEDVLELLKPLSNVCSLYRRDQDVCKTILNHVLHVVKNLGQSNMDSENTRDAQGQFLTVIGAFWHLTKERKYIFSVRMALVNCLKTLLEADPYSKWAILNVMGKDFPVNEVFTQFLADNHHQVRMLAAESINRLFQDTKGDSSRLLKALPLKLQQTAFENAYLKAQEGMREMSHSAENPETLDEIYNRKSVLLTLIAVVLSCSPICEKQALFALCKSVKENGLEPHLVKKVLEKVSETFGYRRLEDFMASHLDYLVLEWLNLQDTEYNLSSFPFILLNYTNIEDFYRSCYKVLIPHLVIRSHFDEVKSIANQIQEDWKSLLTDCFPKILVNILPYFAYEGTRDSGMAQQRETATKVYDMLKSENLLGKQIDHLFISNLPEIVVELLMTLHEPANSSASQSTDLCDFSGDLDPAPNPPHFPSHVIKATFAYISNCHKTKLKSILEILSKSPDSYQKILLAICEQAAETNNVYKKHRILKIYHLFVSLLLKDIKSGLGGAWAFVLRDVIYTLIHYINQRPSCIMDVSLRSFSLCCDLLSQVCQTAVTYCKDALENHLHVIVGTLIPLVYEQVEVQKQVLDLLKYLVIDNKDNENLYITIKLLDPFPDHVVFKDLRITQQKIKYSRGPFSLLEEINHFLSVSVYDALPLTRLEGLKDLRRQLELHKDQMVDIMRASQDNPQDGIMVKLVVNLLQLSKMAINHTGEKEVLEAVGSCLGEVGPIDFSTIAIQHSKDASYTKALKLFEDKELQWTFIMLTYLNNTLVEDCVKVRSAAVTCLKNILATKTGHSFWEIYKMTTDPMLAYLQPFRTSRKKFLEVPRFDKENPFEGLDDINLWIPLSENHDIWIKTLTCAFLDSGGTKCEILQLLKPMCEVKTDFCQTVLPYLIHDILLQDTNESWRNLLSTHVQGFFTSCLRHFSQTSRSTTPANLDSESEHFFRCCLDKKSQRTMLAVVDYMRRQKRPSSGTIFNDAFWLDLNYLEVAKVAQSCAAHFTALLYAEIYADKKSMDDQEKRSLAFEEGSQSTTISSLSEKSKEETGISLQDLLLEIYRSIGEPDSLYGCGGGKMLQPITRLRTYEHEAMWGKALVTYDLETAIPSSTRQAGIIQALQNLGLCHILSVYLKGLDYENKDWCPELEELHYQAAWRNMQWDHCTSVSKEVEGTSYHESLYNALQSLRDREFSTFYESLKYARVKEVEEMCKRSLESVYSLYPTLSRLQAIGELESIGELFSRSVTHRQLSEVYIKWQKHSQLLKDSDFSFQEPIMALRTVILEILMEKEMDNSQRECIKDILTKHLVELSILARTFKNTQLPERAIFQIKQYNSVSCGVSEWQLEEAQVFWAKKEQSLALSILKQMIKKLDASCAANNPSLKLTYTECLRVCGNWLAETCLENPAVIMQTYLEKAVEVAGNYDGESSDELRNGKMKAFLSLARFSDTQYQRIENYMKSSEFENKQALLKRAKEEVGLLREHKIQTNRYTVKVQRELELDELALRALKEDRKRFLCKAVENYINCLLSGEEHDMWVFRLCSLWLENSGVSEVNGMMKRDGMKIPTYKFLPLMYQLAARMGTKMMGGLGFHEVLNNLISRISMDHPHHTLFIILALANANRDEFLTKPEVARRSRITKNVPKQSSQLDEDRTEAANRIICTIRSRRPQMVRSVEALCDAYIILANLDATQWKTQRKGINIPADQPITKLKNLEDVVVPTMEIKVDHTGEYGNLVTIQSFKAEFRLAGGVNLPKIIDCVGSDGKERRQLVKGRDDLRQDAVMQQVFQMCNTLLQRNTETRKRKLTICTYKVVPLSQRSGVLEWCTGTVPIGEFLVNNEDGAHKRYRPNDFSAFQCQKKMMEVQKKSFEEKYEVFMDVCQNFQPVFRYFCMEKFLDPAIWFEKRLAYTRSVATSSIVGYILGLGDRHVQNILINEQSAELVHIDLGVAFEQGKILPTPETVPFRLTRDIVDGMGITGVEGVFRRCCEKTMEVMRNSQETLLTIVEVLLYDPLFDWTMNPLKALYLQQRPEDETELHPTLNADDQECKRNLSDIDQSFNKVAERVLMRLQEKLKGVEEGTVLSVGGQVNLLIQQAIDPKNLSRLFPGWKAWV

On to `CC(C)NCCOc1ncc(-c2cc3c(cc2F)ncc2c3[C@]3(C[C@@H](c4cccc(Cl)c4)C3)C(=O)N2C)cc1NS(C)(=O)=O` [Example 419, trans-N-(5-(3-(3-Chlorophenyl)-7′-fluoro-3′-methyl-2′-oxo-2′,3′-dihydrospiro[cyclobutane-1,1′-pyrrolo[2,3-c]quinolin]-8′-yl)-2-(2-(isopropylamino)ethoxy)pyridin-3-yl)methanesulfonamide], for which the IC50 is above 100 nM against ATM (setting [1]) and 1 to 100 nM against DNA-PK (20 μM ATP).
Regarding `CN1CCN(c2ncc(-c3cc4c5c(cnc4cc3F)N(C)C(=O)C53CC3)cc2NS(=O)(=O)c2ccccc2)CC1` [Example 117, N-(5-(7′-Fluoro-3′-methyl-2′-oxo-2′,3′-dihydrospiro [cyclopropane-1,1′-pyrrolo[2,3-c]quinolin]-8′-yl)-2-(4-methylpiperazin-l-yl)Pyridin-3-yl)benzenesulfonamide hydrochloride], the IC50 against ATM (setting [2]) and against DNA-PK (ATP 20 μM) was 1 to 100 nM each time.
With `CN(C)CCCOc1ccc(-c2ccc3ncc4c(c3c2)C2(CC2)C(=O)N4C)cc1NS(=O)(=O)c1cccc(Cl)c1` [Example 98, 3-Chloro-N-(2-(3-(dimethylamino)propoxy)-5-(3′-methyl-2′-oxo-2′,3′-dihydrospiro[cyclopropane-1,1′-pyrrolo[2,3-c]quinolin]-8′-yl)phenyl) benzenesulfonamide], the concentration for half-maximal inhibition (IC50) at ATM (setting [2]) and on DNA-PK (ATP 20 μM) was 1 to 100 nM in each case.
Regarding `CC(C)NCCOc1ncc(-c2cc3c4c(cnc3cc2F)N(C)C(=O)C42CCC2)cc1NS(=O)(=O)C1(C)CC1` [Example 367, N-(5-(7′-Fluoro-3′-methyl-2′-oxo-2′,3′-dihydrospiro[cyclobutane-1,1′-pyrrolo[2,3-c]quinolin]-8′-yl)-2-(2-(isopropylamino)ethoxy)pyridin-3-yl)-1-methylcyclopropane-l-sulfonamide], the IC50 against ATM (setting [1]) and against DNA-PK (20 μM ATP) was 1 to 100 nM each time.
For the molecule `COCCN(C)CCCOc1ncc(-c2ccc3ncc4c(c3c2)C2(CCC2)C(=O)N4C)cc1NS(C)(=O)=O` [Example 278, N-(2-(3-((2-Methoxyethyl)(methyl)amino)propoxy)-5-(3′-methyl-2′-oxo-2′,3′-dihydrospiro[cyclobutane-1,1′-pyrrolo[2,3-c]quinolin]-8′-yl)pyridin-3-yl)methanesulfonamide], the IC50 at ATM (setting [2]) lay in the range of 0.5 to 1 nM; at DNA-PK (ATP 20 μM), 1 to 100 nM.
For `CN1C(=O)C2(CCC2)c2c1cnc1cc(F)c(-c3cnc(N4CC(N(C)C)C4)c(NS(=O)(=O)N(C)C)c3)cc21` [Example 316, 8′-{6-[3-(Dimethylamino)azetidin-1-yl]-5-[(dimethylsulfamoyl)amino]pyridin-3-yl}-7′-fluoro-3′-methyl-2′,3′-dihydrospiro[cyclobulane-1,1′-pyrrolo[2,3-c]quinoline]-2′-one hydrochloride], the IC50 on ATM (setting [2]) and on DNA-PK (ATP 20 μM) was 1 to 100 nM in each case.
For the molecule `CC(C)NCCOc1ncc(-c2cc3c4c(cnc3cc2F)N(C)C(=O)C42CN(C3CCC3)C2)cc1NS(C)(=O)=O` [Example 497, N-(5-(1-Cyclobutyl-7′-fluoro-3′-methyl-2′-oxo-2′,3′-dihydrospiro[azetidine-3,1′-pyrrolo[2,3-c]quinolin]-8′-yl)-2-(2-(isopropylamino)ethoxy)pyridin-3-yl)methanesulfonamide hydrochloride], the IC50 against ATM (setting [1]) and on DNA-PK (20 μM ATP) was 1 to 100 nM throughout.
Turning to `CC(C)NCCOc1ncc(-c2cc3c4c(cnc3cc2F)N(C)C(=O)C42CN(c3ccc(F)cc3)C2)cc1NS(C)(=O)=O` [Example 538, N-(5-(7′-Fluoro-1-(4-fluorophenyl)-3′-methyl-2′-oxo-2′,3′-dihydrospiro [azetidine-3,1′-pyrrolo[2,3-c]quinolin]-8′-yl)-2-(2-(isopropylamino)ethoxy)pyridin-3-yl)methanesulfonamide hydrochloride], the IC50 against ATM (setting [1]) and at DNA-PK (20 μM ATP) was 1 to 100 nM in each case.

As usually defined, the IC50 is the midpoint of a concentration-inhibition curve. Low values mean greater potency, high ones weaker potency.

These data come from patent US12187742B2 (XRAD Therapeutics, Inc., priority 2018, dated 2025).
